For assay [1], the system named is cancer cell lines shown in Table 4. In words: Test for inhibition of activity of GPX4 1 (cell growth inhibition under a GPX4 inhibitor). The class given is cell-based, human. The following applies: cancer cell having a suppressed function of SMARCA4. On the procedure:
In each cancer cell line, cell growth inhibition activity under a GPX4 inhibitor was evaluated. As the GPX4 inhibitor, ML210 (CAS No: 1360705-96-9) which is a low-molecular GPX4 inhibitor reported to be a compound inhibiting the enzymatic activity of GPX4:
These compounds were each added, and each cell line was seeded at 100 μL/well so as to attain the seeding density (2) shown in Table 5 below. The cells were cultured for 7 days, the intracellular ATP which is a marker for cell survival was then measured using Cell Titer-Glo 2.0 Cell Viability Assay (manufactured by Promega Corporation), and the cell survival rate was calculated, where the intracellular ATP level in each cancer cell line given only a solvent (dimethyl sulfoxide (DMSO) or water) for the compound and cultured for 7 days was defined as 100%.

The subject of assay [2] is SK-HEP-1 tumor. The experiment in a line: Test for drug efficacy of ML210 on SK-HEP-1 tumor-bearing mouse. In kind it is in vivo, BALB/c-nu/nu mice. The following applies: SK-HEP-1 tumor-bearing mice; oral, once a day, 100 mg/kg from day 11; measured days 11, 14 and 18; versus vehicle; FIG. 9. The method, then: For examining the efficacy of the GPX4 inhibitor on SWI/SNF complex factor-deficient cancer in vivo, a test was conducted in which ML210 was administered to mice in which SK-HEP-1 (human cancer cell line suppressing a function of SMARCA4) was transplanted (SK-HEP-1 tumor-bearing mice). […]
Subsequently, to mice (SK-HEP-1 tumor-bearing mice) for which the engraftment of the tumor (cancer cell) had been confirmed, a dosing liquid obtained by suspending ML210 at a predetermined concentration in a mixed liquid of 10% dimethyl sulfoxide (manufactured by Wako Company, product code: 043-07216), 10% Cremophor (manufactured by Sigma-Aldrich Co. LLC, product code: C5135), 15% polyethylene glycol 400 (manufactured by Wako Company, product code: 161-09065) and 15% hydroxypropyl-β-cyclodextrin (manufactured by Nihon Shokuhin Kako Co., Ltd., product code: 7585-39-9) was orally administered at a predetermined dose (20 mL/kg) once a day to a daily dosage of 100 mg/kg upon the confirmation of the implantation. The day of inoculation of SK-HEP-1 was defined as day 0, administration of ML210 was started on day 11, and the volume of the tumor was measured on days 11, 14 and 18. The minor diameter and the major diameter of the tumor were measured using an electronic caliper (manufactured by Mitutoyo Corporation, product code: CD-15AX), and the volume of the tumor was calculated by the […].

The results in this text go back to US12529701B2, “Method for predicting sensitivity of cancer cell to GPX4 inhibitor” (Chugai Seiyaku Kabushiki Kaisha, priority 2019, dated 2026).

For `Cc1onc(C(=O)N2CCN(C(c3ccc(Cl)cc3)c3ccc(Cl)cc3)CC2)c1[N+](=O)[O-]` [ML210], in assay [1], the “cell death and cell growth suppression” value was “markedly suppress cell growth”. Also, the “volume of the tumor” value in assay [2] is “an increase in volume of the tumor was suppressed as compared to the group given the vehicle”.
Consider `COC(=O)c1ccc([C@H]2c3[nH]c4ccccc4c3C[C@H](C(=O)OC)N2C(=O)CCl)cc1` [RSL3], for which the “cell death and cell growth suppression” value in assay [1] was “markedly suppress cell growth”.
